Earlier results on one molecule are cited in patent US20180346488A1, “CYTOTOXIC BENZODIAZEPINE DERIVATIVES AND CONJUGATES THEREOF” (priority 2017, published 2018).

The conditions of the data set: Phase I clinical evaluation; cited from earlier work.

In the case of `C=C1C[C@H]2C=Nc3cc(OCCCOc4cc5c(cc4OC)C(=O)N4CC(=C)C[C@H]4C=N5)c(OC)cc3C(=O)N2C1` [SJG-136], the “DNA damage in circulating lymphocytes” value was “noted at all doses”; the adverse effects noted entry was “vascular leak syndrome, peripheral edema, liver toxicity and fatigue”; the maximum tolerated dose was 45 μg/m^2.
